Measured values: ChEMBL document CHEMBL1201862, “PubChem BioAssay data set” (2004)
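Method: 48-hour compound exposure of cells in 96-well plates, five concentrations, linear interpolation of endpoints. At the GI50, growth is halved.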 Activity calls are given as the source filed them. Rule as the data show it: active = GI50 up to about 1.1 µM and inactive = higher.

Key:
Experiment in all cases: NCI tumour cell line growth inhibition, 48 h
HL-60 = test system: HL-60
CAKI-1 = test system: CAKI-1
A498 = test system: A498
HOP-62 = test system: HOP-62
TK-10 = test system: TK-10
BT-549 = test system: BT-549
OVCAR-5 = test system: OVCAR-5
NCI-H460 = test system: NCI-H460
SN12C = test system: SN12C
UO-31 = test system: UO-31
OVCAR-4 = test system: OVCAR-4
OVCAR-3 = test system: OVCAR-3
SF-295 = test system: SF-295
SR = test system: SR
Malme-3M = test system: Malme-3M
T47D = test system: T47D
IGROV-1 = test system: IGROV-1
SNB-19 = test system: SNB-19
SK-MEL-5 = test system: SK-MEL-5
HCC 2998 = test system: HCC 2998

Measured: GI50

O=c1[nH]c2cc3cccnc3c(Cl)c2nc1C(F)(F)F
inactive: HL-60 32.9 µM | CAKI-1 21.2 µM | A498 19.2 µM | HOP-62 29.3 µM | TK-10 68.9 µM | BT-549 38.9 µM | OVCAR-5 > 100 µM | NCI-H460 27.5 µM | SN12C 75.5 µM | UO-31 27.7 µM | OVCAR-4 21.8 µM | OVCAR-3 34.4 µM | SF-295 41 µM | SR 28.2 µM | Malme-3M 77.8 µM | T47D 33.6 µM | IGROV-1 12.6 µM | SNB-19 54.7 µM | SK-MEL-5 14.5 µM | HCC 2998 42 µM

O=C(O)COc1cccc2ccccc(=O)c12
inactive: HL-60 > 100 µM | CAKI-1 > 100 µM | A498 > 100 µM | HOP-62 > 100 µM | TK-10 > 100 µM | BT-549 > 100 µM | OVCAR-5 > 100 µM | NCI-H460 > 100 µM | SN12C > 100 µM | UO-31 > 100 µM | OVCAR-4 > 100 µM | OVCAR-3 > 100 µM | SF-295 > 100 µM | SR > 100 µM | Malme-3M > 100 µM | T47D > 100 µM | IGROV-1 > 100 µM | SNB-19 > 100 µM | SK-MEL-5 > 100 µM | HCC 2998 > 100 µM

CCOC(=O)Nc1ccc2c(c1)N(C(=O)CCN(CC)CC)c1ccccc1S2 [ETHACIZINE]
inactive: HL-60 18.9 µM | CAKI-1 36.4 µM | A498 23.4 µM | HOP-62 33.9 µM | TK-10 32.9 µM | BT-549 28.1 µM | OVCAR-5 57.1 µM | NCI-H460 20.1 µM | SN12C 28.6 µM | UO-31 27.5 µM | OVCAR-4 43.6 µM | OVCAR-3 30 µM | SF-295 22.1 µM | SR 17.5 µM | Malme-3M 18.7 µM | T47D 27.4 µM | IGROV-1 40.5 µM | SNB-19 47 µM | SK-MEL-5 19.2 µM | HCC 2998 17.3 µM

CNC1=C/C(=N/C2=CC(=N/C(=C\C#N)C(C)(C)O)/OC2(C)C)OC1(C)C
inactive: HL-60 2.01 µM | CAKI-1 7.82 µM | A498 30.9 µM | HOP-62 7.96 µM | TK-10 21.3 µM | BT-549 29.6 µM | OVCAR-5 60.4 µM | NCI-H460 5.97 µM | SN12C 14.5 µM | UO-31 5.77 µM | OVCAR-4 27.2 µM | OVCAR-3 32.4 µM | SF-295 23.9 µM | SR 4.9 µM | Malme-3M 25.2 µM | T47D 6.78 µM | IGROV-1 6.52 µM | SNB-19 33 µM | SK-MEL-5 14.9 µM | HCC 2998 29.2 µM

CC[C@H](C)[C@H]1NC(=O)[C@@H](NC(=O)[C@@H](CC(C)C)N(C)C(=O)C2CCCN2C(=O)[C@H](C)O)[C@@H](C)OC(=O)[C@H](Cc2ccc(OC)cc2)N(C)C(=O)[C@@H]2CCCN2C(=O)[C@H](CCCCNC(=O)OCc2ccccc2)NC(=O)[C@H](C)C(=O)[C@H](C(C)C)OC(=O)C[C@@H]1O (stereo not given in full)
inactive: HL-60 > 25 µM | CAKI-1 16.8 µM | A498 > 25 µM | HOP-62 6.65 µM | TK-10 6.97 µM | BT-549 7.93 µM | OVCAR-5 7.28 µM | NCI-H460 6.4 µM | SN12C 5.64 µM | UO-31 23.4 µM | OVCAR-4 5.47 µM | OVCAR-3 4.01 µM | SF-295 8.63 µM | SR 12.2 µM | Malme-3M 4.89 µM | T47D 7.67 µM | IGROV-1 7.74 µM | SNB-19 2.66 µM | SK-MEL-5 4.41 µM | HCC 2998 2.73 µM

COc1ccc(-n2c(Cn3nnc(-c4cccnc4)n3)nn(C3OC(COC(=O)c4ccccc4)C(OC(=O)c4ccccc4)C3OC(=O)c3ccccc3)c2=S)cc1 (stereo not given)
inactive: HL-60 > 100 µM | CAKI-1 > 100 µM | A498 > 100 µM | HOP-62 > 100 µM | TK-10 > 100 µM | BT-549 > 100 µM | OVCAR-5 > 100 µM | NCI-H460 > 100 µM | SN12C > 100 µM | UO-31 > 100 µM | OVCAR-4 > 100 µM | OVCAR-3 > 100 µM | SF-295 > 100 µM | SR > 100 µM | Malme-3M > 100 µM | T47D > 100 µM | IGROV-1 32.4 µM | SNB-19 74 µM | SK-MEL-5 > 100 µM | HCC 2998 > 100 µM

CCC(C)N1CN(c2ccccc2)C2(CCN(CCCC3(c4ccc(F)cc4)OCCO3)CC2)C1=O (stereo not given)
inactive: HL-60 6.47 µM | CAKI-1 > 52 µM | A498 22.2 µM | HOP-62 13.2 µM | TK-10 7.5 µM | BT-549 2 µM | OVCAR-5 8.61 µM | NCI-H460 14.8 µM | SN12C 7.24 µM | UO-31 5.09 µM | OVCAR-4 22.6 µM | OVCAR-3 14.7 µM | SF-295 5.57 µM | SR 6.34 µM | Malme-3M 5.19 µM | T47D 8.28 µM | IGROV-1 16.5 µM | SNB-19 12.4 µM | SK-MEL-5 3.88 µM | HCC 2998 12.9 µM
